In assay [1] the target is HER2YVMA (Homo sapiens, UniProt P04626, INS775YVMA). The experiment in a line: HER2 signaling (pHER2) in Hek293-HER2YVMA cells. The assay is classed as cell-based. To be noted: 1.5 hr compound, 1% FBS, read-out: HEKYVMA pHER2 EC50. More on the design: expressed in transfected cells; host or cells: HEK293 (pool), Ba/F3 (clones), BEAS2B (clones); lentiviral vector pCDH-CMV-MCS-EF1-Neo. A digest of the protocol:
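Lentivirally transduced HER2YVMA lines (HEK293 pool; BEAS2B clone) treated 1.5 h at 37 °C in 1% FBS medium with compound at 0.0005–1.1 μM. Lysates read by MSD immunoassay for pHER2 (Tyr1248) normalized to total HER2, as % DMSO control; EC50 from variable-slope sigmoidal fit.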

Assay [2] addresses EGFR (Homo sapiens, UniProt P00533). The experiment in a line: EGFR signaling (pEGFR Tyr1068/total EGFR MSD) in A431 cells. To be noted: for EC50: A431 cells, read-out: A431 pEGFR EC50; for Selectivity A431 EC50/BT474 EC50: ratio A431 pEGFR EC50 to BT474 pHER2 EC50; for Selectivity A431 EC50/HEKYVMA EC50: ratio A431 pEGFR EC50 to HEK YVMA pHER2 EC50. The class given is cell-based. More on the design: endogenous in cells; host or cells: A431, N87. The gist of the method: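 EC50 was fitted with variable Hill slope from MSD pTyr1068/total EGFR ratios, expressed as % DMSO control. A431 cells were starved overnight, then exposed 1.5 h to eight concentrations from 10 to 0.005 μM in 1% FBS before a 10-min 100 ng/mL EGF pulse.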

What is called EC50 is the concentration that produces a half-maximal response.

Chain of HER2YVMA (P04626 with tags, fused parts or gaps INS775YVMA): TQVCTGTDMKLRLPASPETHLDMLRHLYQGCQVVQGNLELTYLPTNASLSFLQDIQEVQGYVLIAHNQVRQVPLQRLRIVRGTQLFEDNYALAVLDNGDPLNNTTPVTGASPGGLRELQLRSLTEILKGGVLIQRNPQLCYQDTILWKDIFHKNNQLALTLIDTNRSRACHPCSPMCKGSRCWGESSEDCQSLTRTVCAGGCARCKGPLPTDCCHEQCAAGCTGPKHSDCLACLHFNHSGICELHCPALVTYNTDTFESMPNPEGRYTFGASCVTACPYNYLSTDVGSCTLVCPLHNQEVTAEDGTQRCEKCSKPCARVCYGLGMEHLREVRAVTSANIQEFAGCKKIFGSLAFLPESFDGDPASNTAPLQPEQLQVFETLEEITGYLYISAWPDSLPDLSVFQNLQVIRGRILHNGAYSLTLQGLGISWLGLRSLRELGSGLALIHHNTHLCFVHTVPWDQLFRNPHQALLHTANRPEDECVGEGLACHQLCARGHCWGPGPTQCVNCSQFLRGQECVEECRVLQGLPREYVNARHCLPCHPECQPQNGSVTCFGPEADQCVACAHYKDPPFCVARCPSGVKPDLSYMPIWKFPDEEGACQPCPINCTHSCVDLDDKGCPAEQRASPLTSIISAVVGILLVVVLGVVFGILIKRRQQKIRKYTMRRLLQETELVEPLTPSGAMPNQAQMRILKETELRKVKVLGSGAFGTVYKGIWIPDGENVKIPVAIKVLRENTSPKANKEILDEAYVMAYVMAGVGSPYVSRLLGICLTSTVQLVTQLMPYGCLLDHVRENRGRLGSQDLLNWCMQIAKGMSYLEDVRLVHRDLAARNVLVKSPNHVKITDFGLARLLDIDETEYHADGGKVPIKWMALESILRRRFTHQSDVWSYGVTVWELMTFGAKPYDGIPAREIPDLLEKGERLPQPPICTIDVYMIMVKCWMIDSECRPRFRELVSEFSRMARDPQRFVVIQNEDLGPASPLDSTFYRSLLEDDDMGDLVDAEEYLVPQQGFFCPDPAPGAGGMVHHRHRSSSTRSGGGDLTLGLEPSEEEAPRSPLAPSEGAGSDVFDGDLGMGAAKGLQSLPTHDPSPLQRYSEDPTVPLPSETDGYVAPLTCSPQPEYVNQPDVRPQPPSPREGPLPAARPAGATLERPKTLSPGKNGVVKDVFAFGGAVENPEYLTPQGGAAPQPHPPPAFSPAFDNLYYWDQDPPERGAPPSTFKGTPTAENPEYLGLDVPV
Chain of EGFR (P00533 25-1210): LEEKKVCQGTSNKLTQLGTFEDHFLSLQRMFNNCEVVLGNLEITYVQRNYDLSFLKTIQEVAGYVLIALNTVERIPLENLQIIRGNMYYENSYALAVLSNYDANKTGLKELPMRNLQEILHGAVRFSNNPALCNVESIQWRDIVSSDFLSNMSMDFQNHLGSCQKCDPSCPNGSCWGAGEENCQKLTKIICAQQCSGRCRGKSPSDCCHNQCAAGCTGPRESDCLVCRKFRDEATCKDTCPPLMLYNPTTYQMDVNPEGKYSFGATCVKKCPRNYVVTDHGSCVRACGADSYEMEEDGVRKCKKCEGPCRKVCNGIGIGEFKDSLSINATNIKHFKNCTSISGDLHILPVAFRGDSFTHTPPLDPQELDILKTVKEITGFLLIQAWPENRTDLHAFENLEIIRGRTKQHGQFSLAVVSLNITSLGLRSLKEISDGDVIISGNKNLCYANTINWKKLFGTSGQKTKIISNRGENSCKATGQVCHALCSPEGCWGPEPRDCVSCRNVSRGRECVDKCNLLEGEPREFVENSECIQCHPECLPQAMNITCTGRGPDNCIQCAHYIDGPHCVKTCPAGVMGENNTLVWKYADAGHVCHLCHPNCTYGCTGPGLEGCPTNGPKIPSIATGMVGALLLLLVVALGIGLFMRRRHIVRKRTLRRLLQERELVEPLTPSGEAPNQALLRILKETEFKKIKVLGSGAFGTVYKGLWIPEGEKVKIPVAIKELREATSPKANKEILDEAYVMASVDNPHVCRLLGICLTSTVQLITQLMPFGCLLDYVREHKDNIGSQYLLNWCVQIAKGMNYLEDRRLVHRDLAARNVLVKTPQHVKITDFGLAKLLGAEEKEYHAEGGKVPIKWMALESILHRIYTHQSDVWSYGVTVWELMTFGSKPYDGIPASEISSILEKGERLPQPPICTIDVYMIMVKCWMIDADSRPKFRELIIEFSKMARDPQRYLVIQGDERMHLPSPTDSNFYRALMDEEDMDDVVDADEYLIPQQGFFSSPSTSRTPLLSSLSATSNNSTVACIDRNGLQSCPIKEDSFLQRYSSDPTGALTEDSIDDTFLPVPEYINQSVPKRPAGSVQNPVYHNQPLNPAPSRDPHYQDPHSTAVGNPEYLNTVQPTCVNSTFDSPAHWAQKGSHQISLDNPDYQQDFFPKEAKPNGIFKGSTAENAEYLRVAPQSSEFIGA

Take `Cc1cc(Nc2ncnc3sc4c(c23)CCN(C(=O)/C=C/CN2CC3CC2CO3)C4)ccc1Oc1ccc2ncnn2c1` (stereo not shown) [Compound 77]: in assay [1], the EC50 fell in the range of 100 to 350 nM. For the same molecule, in assay [2], the half-maximal effective concentration (EC50) was 1000 to 10000 nM; the “Selectivity A431 EC50/BT474 EC50” value is “B (B: ≥ 20 and < 100)”; the “Selectivity A431 EC50/HEKYVMA EC50” value is “D (D: ≥ 5 and < 10)”.
On to `C=CC(=O)N1CCc2[nH]c3ncnc(Nc4ccc(Oc5ccc6ncnn6c5)c(C)c4)c3c2C1` [Compound 102, 1-(4-((4-([1,2,4]triazolo[1,5-a]pyridin-6-yloxy)-3-methylphenyl)amino)-5,7,8,9-tetrahydro-6H-pyrido[3′,4′:4,5]pyrrolo[2,3-d]pyrimidin-6-yl)prop-2-en-1-one], for which the EC50 in assay [1] lay in the range of 100 to 350 nM. Also, in assay [2], the EC50 lay in the range of 1000 to 10000 nM; the “Selectivity A431 EC50/BT474 EC50” value is “C (C: ≥ 10 and < 20)”; the “Selectivity A431 EC50/HEKYVMA EC50” value is “C (C: ≥ 10 and < 20)”.
With `Cc1ccc(Oc2ccc(Nc3ncnc4sc5c(c34)CCN(C(=O)/C=C/CN3CCn4cc(C(F)(F)F)nc4C3)C5)cc2C)cn1` [Compound 61], in assay [1], the EC50 fell in the range of 350 to 1000 nM. Further, in assay [2], the half-maximal effective concentration (EC50) is > 10000 nM; the “Selectivity A431 EC50/BT474 EC50” value is “B (B: ≥ 20 and < 100)”; the “Selectivity A431 EC50/HEKYVMA EC50” value is “C (C: ≥ 10 and < 20)”.
Regarding `Cc1ccc(Oc2ccc(Nc3ncnc4sc5c(c34)CCN(C(=O)/C=C/CN[C@H]3CC[C@H](OCC(F)(F)F)CC3)C5)cc2C)cn1` [Compound 70], in assay [1], the EC50 was < 100 nM. In assay [2], the EC50 was < 100 nM; the “Selectivity A431 EC50/BT474 EC50” value is “D (D: ≥ 5 and < 10)”; the “Selectivity A431 EC50/HEKYVMA EC50” value is “E (E: >1 and < 5)”.
On to `Cc1cc(Nc2ncnc3sc4c(c23)CCN(C(=O)/C=C/CN2CC3CCC(C3)C2)C4)ccc1Oc1ccc2ncnn2c1` [Compound 20], for which the 50% effective concentration (EC50) in assay [1] is < 100 nM. Besides, in assay [2], the concentration for a half-maximal effect (EC50) is < 100 nM; the “Selectivity A431 EC50/BT474 EC50” value was “B (B: ≥ 20 and < 100)”; the “Selectivity A431 EC50/HEKYVMA EC50” value was “B (B: ≥ 20 and < 100)”.
As for `Cc1ccc(Oc2ccc(Nc3ncnc4sc5c(c34)CCN(C(=O)/C=C/CN[C@@H](C)CO)C5)cc2C)cn1` [Compound 75], in assay [1], the EC50 was < 100 nM. In assay [2], the EC50 was < 100 nM; the “Selectivity A431 EC50/BT474 EC50” value is “D (D: ≥ 5 and < 10)”; the “Selectivity A431 EC50/HEKYVMA EC50” value is “D (D: ≥ 5 and < 10)”.
Consider `Cc1ccc(Oc2ccc(Nc3ncnc4sc5c(c34)CCN(C(=O)/C=C/CN(CCO)CCO)C5)cc2C)cn1` [Compound 37], for which, in assay [1], the EC50 was in the range of 100 to 350 nM. In addition, in assay [2], the 50% effective concentration (EC50) was > 10000 nM; the “Selectivity A431 EC50/BT474 EC50” value is “A (A: ≥100)”; the “Selectivity A431 EC50/HEKYVMA EC50” value was “B (B: ≥ 20 and < 100)”.
As to `Cc1ccc(Oc2ccc(Nc3ncnc4sc5c(c34)CCN(C(=O)/C=C/CN3CC(O)CO3)C5)cc2C)cn1` (stereo not shown) [Compound 43], in assay [1], the EC50 is 350 to 1000 nM. In assay [2], the EC50 is > 10000 nM; the “Selectivity A431 EC50/BT474 EC50” value was “B (B: ≥ 20 and < 100)”; the “Selectivity A431 EC50/HEKYVMA EC50” value is “C (C: ≥ 10 and < 20)”.
As for `Cc1ccc(Oc2ccc(Nc3ncnc4sc5c(c34)CCN(C(=O)/C=C/CN3CCCOCC3)C5)cc2C)cn1` [Compound 42], in assay [1], the EC50 is < 100 nM. For the same molecule, in assay [2], the concentration giving a half-maximal response (EC50) is 100 to 1000 nM; the “Selectivity A431 EC50/BT474 EC50” value was “B (B: ≥ 20 and < 100)”; the “Selectivity A431 EC50/HEKYVMA EC50” value is “B (B: ≥ 20 and < 100)”.
In the case of `Cc1cc(Nc2ncnc3sc4c(c23)CCN(C(=O)/C=C/CN(C)C)C4)ccc1Oc1ccc2ncnn2c1` [Compound 3, (E)-1-(4-((4-([1,2,4]triazolo[1,5-a]pyridin-6-yloxy)-3-methylphenyl)amino)-5,8-dihydropyrido[4′,3′:4,5]thieno[2,3-d]pyrimidin-7(6H)-yl)-4-(dimethylamino)but-2-en-1-one], in assay [1], the 50% effective concentration (EC50) was 100 to 350 nM. Also, in assay [2], the EC50 was in the range of 100 to 1000 nM; the “Selectivity A431 EC50/BT474 EC50” value was “B (B: ≥ 20 and < 100)”; the “Selectivity A431 EC50/HEKYVMA EC50” value was “E (E: >1 and < 5)”.
`C=CC(=O)N1CCc2c(sc3ncnc(Nc4ccc(Oc5ccc6ncnn6c5)c(Cl)c4)c23)C1` [Compound 4, 1-(4-((4-([1,2,4]triazolo[1,5-a]pyridin-6-yloxy)-3-chlorophenyl)amino)-5,8-dihydropyrido[4′,3′:4,5]thieno[2,3-d]pyrimidin-7(6H)-yl)prop-2-en-1-one]: the EC50 in assay [1] was < 100 nM. Besides, in assay [2], the EC50 was in the range of 100 to 1000 nM; the “Selectivity A431 EC50/BT474 EC50” value was “B (B: ≥ 20 and < 100)”; the “Selectivity A431 EC50/HEKYVMA EC50” value is recorded as “A (A: ≥100)”.
As to `CNC(=O)CNC/C=C/C(=O)N1CCc2c(sc3ncnc(Nc4ccc(Oc5ccc(C)nc5)c(C)c4)c23)C1` [Compound 39], the EC50 in assay [1] lay in the range of 100 to 350 nM. In assay [2], the EC50 is 1000 to 10000 nM; the “Selectivity A431 EC50/BT474 EC50” value is “C (C: ≥ 10 and < 20)”; the “Selectivity A431 EC50/HEKYVMA EC50” value was “D (D: ≥ 5 and < 10)”.
As to `Cc1ccc(Oc2ccc(Nc3ncnc4sc5c(c34)CCN(C(=O)/C=C/CN3CC4CC3CO4)C5)cc2C)cn1` (stereo not shown) [Compound 26], the concentration giving a half-maximal response (EC50) in assay [1] is < 100 nM. Besides, in assay [2], the EC50 is < 100 nM; the “Selectivity A431 EC50/BT474 EC50” value was “D (D: ≥ 5 and < 10)”; the “Selectivity A431 EC50/HEKYVMA EC50” value is “D (D: ≥ 5 and < 10)”.
As for `CCOC/C=C/C(=O)N1CCc2c(sc3ncnc(Nc4ccc(Oc5ccc(C)nc5)c(C)c4)c23)C1` [Compound 96, (E)-4-ethoxy-1-(4-((3-methyl-4-((6-methylpyridin-3-yl)oxy)phenyl)amino)-5,8-dihydropyrido[4′,3′:4,5]thieno[2,3-d]pyrimidin-7(6H)-yl)but-2-en-1-one], the half-maximal effective concentration (EC50) in assay [1] was < 100 nM. For the same molecule, in assay [2], the EC50 lay within 100 to 1000 nM; the “Selectivity A431 EC50/BT474 EC50” value was “C (C: ≥ 10 and < 20)”; the “Selectivity A431 EC50/HEKYVMA EC50” value is “D (D: ≥ 5 and < 10)”.
On to `Cc1ccc(Oc2ccc(Nc3ncnc4sc5c(c34)CCN(C(=O)/C=C/CNC3CCC(C(=O)N(C)C)CC3)C5)cc2C)cn1` (stereo not shown) [Compound 71], for which the concentration giving a half-maximal response (EC50) in assay [1] was < 100 nM. In assay [2], the 50% effective concentration (EC50) is < 100 nM; the “Selectivity A431 EC50/BT474 EC50” value is given as “A (A: ≥100)”; the “Selectivity A431 EC50/HEKYVMA EC50” value is “E (E: >1 and < 5)”.
For the molecule `Cc1ncc(Oc2ccc(Nc3ncnc4sc5c(c34)CCN(C(=O)/C=C/CN(C)C)C5)cc2C)cn1` [Compound 21, (E)-4-(dimethylamino)-1-(4-((3-methyl-4-((2-methylpyrimidin-5-yl)oxy)phenyl)amino)-5,8-dihydropyrido[4′,3′:4,5]thieno[2,3-d]pyrimidin-7(6H)-yl)but-2-en-1-one], in assay [1], the EC50 was < 100 nM. Besides, in assay [2], the concentration for a half-maximal effect (EC50) lay within 100 to 1000 nM; the “Selectivity A431 EC50/BT474 EC50” value is “B (B: ≥ 20 and < 100)”; the “Selectivity A431 EC50/HEKYVMA EC50” value is “B (B: ≥ 20 and < 100)”.
Turning to `Cc1ccc(Oc2ccc(Nc3ncnc4sc5c(c34)CCN(C(=O)/C=C/CN3CC4C(CO)C4C3)C5)cc2C)cn1` (stereo not shown) [Compound 34], the EC50 in assay [1] was < 100 nM. In addition, in assay [2], the 50% effective concentration (EC50) lay in the range of 100 to 1000 nM; the “Selectivity A431 EC50/BT474 EC50” value is “C (C: ≥ 10 and < 20)”; the “Selectivity A431 EC50/HEKYVMA EC50” value was “E (E: >1 and < 5)”.
For the molecule `CN(C/C=C/C(=O)N1CCc2c(sc3ncnc(Nc4ccc(Oc5ccc6ncnn6c5)c(Cl)c4)c23)C1)C(C)(C)C` [Compound 91], the EC50 in assay [1] is < 100 nM. In assay [2], the EC50 was < 100 nM; the “Selectivity A431 EC50/BT474 EC50” value was “C (C: ≥ 10 and < 20)”; the “Selectivity A431 EC50/HEKYVMA EC50” value is “D (D: ≥ 5 and < 10)”.
As to `Cc1ccc(Oc2ccc(Nc3ncnc4sc5c(c34)CCN(C(=O)/C=C/CN3CCC(n4ccnc4)CC3)C5)cc2C)cn1` [Compound 62], the EC50 in assay [1] lay within 100 to 350 nM. Also, in assay [2], the concentration giving a half-maximal response (EC50) was 100 to 1000 nM; the “Selectivity A431 EC50/BT474 EC50” value was “B (B: ≥ 20 and < 100)”; the “Selectivity A431 EC50/HEKYVMA EC50” value was “E (E: >1 and < 5)”.
With `COc1ccc(Oc2ccc(Nc3ncnc4sc5c(c34)CCN(C(=O)/C=C/CN(C)C)C5)cc2C)cn1` [Compound 95, (E)-4-(Dimethylamino)-1-(4-((4-((6-methoxypyridin-3-yl)oxy)-3-methylphenyl)amino)-5,6-dihydropyrido[4′,3′:4,5]thieno[2,3-d]pyrimidin-7(8H)-yl)but-2-en-1-one], the concentration for a half-maximal effect (EC50) in assay [1] is < 100 nM. In assay [2], the concentration giving a half-maximal response (EC50) fell in the range of 100 to 1000 nM; the “Selectivity A431 EC50/BT474 EC50” value is “D (D: ≥ 5 and < 10)”; the “Selectivity A431 EC50/HEKYVMA EC50” value was “C (C: ≥ 10 and < 20)”.
As for `Cc1cc(Nc2ncnc3sc4c(c23)CCN(C(=O)/C=C/CN2CC(C)(C)OC(C)(C)C2)C4)ccc1Oc1ccc2ncnn2c1` [Compound 84], the EC50 in assay [1] lay within 100 to 350 nM. Also, in assay [2], the EC50 is > 10000 nM; the “Selectivity A431 EC50/BT474 EC50” value is given as “A (A: ≥100)”; the “Selectivity A431 EC50/HEKYVMA EC50” value is “B (B: ≥ 20 and < 100)”.
For `Cc1ccc(Oc2ccc(Nc3ncnc4[nH]c5c(c34)CN(C(=O)/C=C/CN(C)C)CC5)cc2C)cn1` [Compound 97, (E)-4-(dimethylamino)-1-(4-((3-methyl-4-((6-methylpyridin-3-yl)oxy)phenyl)amino)-5,7,8,9-tetrahydro-6H-pyrido[3′,4′:4,5]pyrrolo[2,3-d]pyrimidin-6-yl)but-2-en-1-one], the EC50 in assay [1] was in the range of 100 to 350 nM. In assay [2], the EC50 was 100 to 1000 nM; the “Selectivity A431 EC50/BT474 EC50” value is “B (B: ≥ 20 and < 100)”; the “Selectivity A431 EC50/HEKYVMA EC50” value was “E (E: >1 and < 5)”.

For the origin of these results see patent publication US20240391931A1 (Bristol-Myers Squibb Company, priority 2021, published 2024).
